Data published in patent publication EP0463212A1, “Imidazo[2,1-b]thiazole compound anti-ulcer agent containing the same” (NIKKEN CHEMICALS CO., LTD., priority 1990, dated 1992).

Experiments:
aspirin-induced ulcer = test: Antiulcer activity against aspirin-induced ulcer model; assay type: in vivo, Wistar strain male rats; settings: 100 mg/kg oral, 30 min before aspirin 200 mg/kg oral; for Ulcer index: stomach excised 7 hours after aspirin, rats fasted 24 hours; for Inhibition rate: versus control group
Experimental: Antiulcer activity against aspirin-induced ulcer model
A suspension of each test compound in 5% gum arabic aqueous solution was orally given to Wistar strain male rats (at the age of 7 to 8 weeks, weighing 180 to 227 g; 7-8 rats in the group administered with the test compound; 14-16 rats in the control group) fasted for 24 hours at a dose of 100 mg of the test compound/5 ml/kg. Thirty minutes after administration, aspirin was further orally administered at a dose of 200 mg/kg. Seven hours after administration of aspirin, stomach was excised under ethereal anesthesia and spotted and linear erosion and a long diameter of ulcer were microscopically measured to determine an ulcer index and an inhibition rate.
(§1) In the control group, 5% gum arabic aqueous solution was orally administered at a dose of 5 ml/kg.

gastric juice secretion = test: Gastric juice secretion inhibition activity (pyloric ligature); assay type: in vivo, Wistar strain male rats; settings: 100 mg/kg oral; for Gastric juice (pH) / Free HCℓ / Pepsin output / Total acidity: four hours after; for Free HCℓ: Töpfer reagent; for Pepsin output: casein as substrate; for Total acidity: phenolphthalein reagent; for Gastric juice: gastric juice collected four hours after
Experimental: Gastric juice secretion inhibition activity
A suspension of each test compound in 5% gum arabic aqueous solution was orally given to Wistar strain male rats (at the age of 7 to 8 weeks, weighing 192 to 241 g; 7-9 rats in the group administered with the test compound; 15 rats in the control group) fasted for 24 hours at a dose of 100 mg of the test compound/5 ml/kg. Thirty minutes after administration (the compounds of Examples 3 and 4) or 60 minutes after administration (the compounds of Examples 1, 2, 5, 6 and 7), pyloric ligature was made under ethereal anesthesia. Four hours after, the stomach was excised under ethereal anesthesia to collect gastric juice. The collected gastric juice was centrifuged (2500 rpm) at 4°C for 10 minutes. After the supernatant was collected, an amount of the gastric juice and its pH were measured using a pH meter. Furthermore, an amount of free hydrochloric acid and the total acidity were measured with Töpfer reagent and phenolphthalein reagent, respectively. Using a part of the gastric juice, pepsin output in the gastric juice was measured using casein as substrate in a manner similar to the method of Anson et al.
as §1

[1] = tested on: SLC-ICR or SLC-ddy strain male mice; test: Acute toxicity; assay type: in vivo; settings: oral, once, observed for 7 days
Experimental: A suspension of each test compound in 5% gum arabic aqueous solution was orally given to SLC-ICR or SLC-ddy strain male mice (at the age of 6 to 7 weeks, weighing 26.6 to 33.6 g; 3-8 mice in one group) forcedly once at a dose of 500 mg and 1,000mg of the test compound/5mℓ/kg. For 7 days after the administration, the mice were observed whether they were dead or alive.

[2] = tested on: water-immersion stress ulcer; test: Antiulcer activity against water-immersion stress ulcer model; assay type: in vivo, Wistar strain male rats; settings: 100 mg/kg oral; for Ulcer index: 30 min before water immersion at 22 ± 1°C, stress load for 6 hours; for Inhibition rate: 30 min before water immersion stress for 6 hours, versus control group
Experimental: Antiulcer activity against water-immersion stress ulcer model
A suspension of each test compound in 5% gum arabic aqueous solution was orally given to Wistar strain male rats (at the age of 7 to 8 weeks, weighing 191 to 238 g; 7-8 rats in the group administered with the test compound; 14-16 rats in the control group) fasted for 24 hours at a dose of 100 mg of the test compound/5 ml/kg. Thirty minutes after administration, the animal was immersed up to the xiphisternum in water bath at 22 ± 1°C using a stress cage made by Tokyo University, Faculty of Pharmacology to apply a stress load for 6 hours. After applying the stress load, the rats had the cervical vertebra dislocated to death. Then, the stomach was excised and, spotted and linear erosion and a long diameter of ulcer were microscopically measured to determine an ulcer index and an inhibition rate.
as §1

ethanol-induced ulcer = test: Antiulcer activity against ethanol-induced ulcer model; assay type: in vivo, Wistar strain male rats; settings: 100 mg/kg oral; for Ulcer index: 30 min before absolute ethanol 5 ml/kg oral, 1 hour after ethanol; for Inhibition rate: versus control group
Experimental: Antiulcer activity against ethanol-induced ulcer model
A suspension of each test compound in 5% gum arabic aqueous solution was orally given to Wistar strain male rats (at the age of 7 to 8 weeks, weighing 180 to 250 g; 5-9 rats in the group administered with the test compound; 4-9 rats in the control group) fasted for 24 hours at a dose of 100 mg of the test compound/5 ml/kg. Thirty minutes after administration, absolute ethanol was further orally administered at a dose of 5 mℓ/kg. One hour after administration of absolute ethanol, the stomach was excised under ethereal anesthesia and the area of an ulcerated portion (mm²) (using microscope) or the proportion (%) thereof to all area of gastric wall (by computer image analysis) were measured to determine an ulcer index and an inhibition rate.
as §1

[3] = pyloric ligature 60 minutes after administration
[4] = pyloric ligature 30 minutes after administration
[5] = area of ulcerated portion (microscope)
[6] = proportion of ulcerated area to all area of gastric wall (computer image analysis)

SMILES	Ulcer index (aspirin-induced ulcer) [mm]	Inhibition rate (aspirin-induced ulcer) [%]	Gastric juice (pH) (gastric juice secretion; [3])	Free HCℓ (gastric juice secretion; [3]) [mcEq/100g]	Pepsin output (gastric juice secretion; [3])	Total acidity (gastric juice secretion; [3]) [mcEq/100g]	Gastric juice (gastric juice secretion; [3]) [mℓ/100g]	Mortality rate (No. of death/No. of treated) ([1]; 500 mg/kg)	Mortality rate (No. of death/No. of treated) ([1]; 1000 mg/kg)	Ulcer index [2] [mm]	Inhibition rate [2] [%]	Gastric juice (pH) (gastric juice secretion; [4])	Free HCℓ (gastric juice secretion; [4]) [mEq/l]	Pepsin output (gastric juice secretion; [4]) [units/hr]	Total acidity (gastric juice secretion; [4]) [mEq/l]	Gastric juice (gastric juice secretion; [4]) [mL]	Ulcer index (ethanol-induced ulcer; [5])	Inhibition rate (ethanol-induced ulcer; from ulcer index in mm^2) [%]	Ulcer index (ethanol-induced ulcer; [6]) [%]	Inhibition rate (ethanol-induced ulcer; from ulcer index in %) [%]
Cc1nc2scc(C)n2c1CO [Ex. 1, 3,6-dimethyl-5-hydroxymethylimidazo[2,1-b]thiazole]	38.6 ± 7.9	45.6	2.02 ± 0.31	33.9 ± 14.9	12.0 ± 1.6 mg of tyrosine/100g	70.6 ± 17.4	1.12 ± 0.18	0/5	1/5	2.6 ± 0.9	89.0	–	–	–	–	–	–	–	–	–
CCCCc1sc2nc(C)c(CO)n2c1C [Ex. 2, 2-butyl-3,6-dimethyl-5-hydroxymethylimidazo[2,1-b]thiazole]	52.7 ± 7.8	25.7	1.29 ± 0.08	111.0 ± 36.3	15.9 ± 2.1 mg of tyrosine/100g	147.2 ± 37.4	1.63 ± 0.28	0/5	0/5	13.3 ± 3.9	43.9	–	–	–	–	–	–	–	–	–
Cc1nc2sccn2c1C(O)c1ccccc1 (stereo not drawn) [Ex. 3, 5-(hydroxy-phenyl)-methyl-6-methyl-imidazo[2,1-b]thiazole]	31.7 ± 5.9	44.8	–	–	–	–	–	2/6	3/3	3.6 ± 2.0	83.3	1.66 ± 0.09	35.1 ± 5.0	157.7 ± 17.6	66.6 ± 4.7	6.4 ± 0.7	–	–	–	–
CCCC(O)c1c(C)nc2sccn12 (stereo not drawn) [Ex. 4, 5-(1-hydroxybutyl)-6-methylimidazo[2,1-b]-thiazole]	41.3 ± 3.8	38.2	–	–	–	–	–	3/8	5/5	7.4 ± 1.5	68.2	2.54 ± 0.27	14.3 ± 7.4	83.1 ± 19.4	68.8 ± 3.6	3.6 ± 0.8	9.2 ± 3.1^** mm^2	94.2	–	–
Cc1nc2sccn2c1C(C)O (stereo not drawn) [Ex. 5, 5-(1-hydroxyethyl)-6-methylimidazo[2,1-b]-thiazole]	29.6 ± 6.8	58.3	1.48 ± 0.11	68.4 ± 19.6	16.6 ± 2.2 mg of tyrosine/100g	117.0 ± 20.8	1.41 ± 0.15	2/5	3/5	19.5 ± 5.8	17.7	–	–	–	–	–	–	–	–	–
CCCCc1sc2nc(C)c(C(O)CCC)n2c1C (stereo not drawn) [Ex. 6, 2-butyl-3,6-dimethyl-5-(1-hydroxybutyl)-imidazo[2,1-b]thiazole]	37.5 ± 7.4	47.1	1.36 ± 0.17	132.7 ± 33.8	21.6 ± 2.7 mg of tyrosine/100g	172.6 ± 36.5	2.00 ± 0.27	0/5	0/5	18.8 ± 4.7	20.7	–	–	–	–	–	–	–	–	–
CCCCc1sc2nc(C)c(C(O)c3ccccc3)n2c1C (stereo not drawn) [Ex. 7, 2-butyl-3,6-dimethyl-5-(hydroxy-phenyl)-methylimidazo[2,1-b]-thiazole]	65.1 ± 8.5	8.2	1.13 ± 0.03	220.6 ± 32.5	27.2 ± 2.3 mg of tyrosine/100g	260.5 ± 32.9	2.91 ± 0.29	0/5	0/5	25.5 ± 5.5	–	–	–	–	–	–	–	–	–	–
Cc1nc2scc(C)n2c1C(O)c1ccccc1 (stereo not drawn) [Ex. 8, 3,6-dimethyl-5-(hydroxy-phenyl)-methylimidazo[2,1-b]-thiazole]	–	–	–	–	–	–	–	–	–	2.8 ± 0.5	82.0	–	–	–	–	–	15.3 ± 8.5^** mm^2	82.2	–	–
Cc1ccc(C(O)c2c(C)nc3sccn23)cc1 (stereo not drawn) [Ex. 9, 5-{hydroxy-(4-methylphenyl)}methyl-6-methylimidazo[2,1-b]thiazole]	–	–	–	–	–	–	–	–	–	–	–	–	–	–	–	–	–	–	6.8 ± 1.5	59.8
COc1ccc(C(O)c2c(C)nc3sccn23)cc1OC (stereo not drawn) [Ex. 10, 5-{hydroxy-(3,4-dimethoxyphenyl)}-methyl-6-methyl-imidazo[2,1-b]thiazole]	–	–	–	–	–	–	–	–	–	–	–	–	–	–	–	–	–	–	2.7 ± 0.9	84.0
Cc1nc2sccn2c1C(O)c1ccc(F)cc1 (stereo not drawn) [Ex. 11, 5-{hydroxy-(4-fluorophenyl)}methyl-6-methylimidazo[2,1-b]thiazole]	–	–	–	–	–	–	–	–	–	–	–	–	–	–	–	–	–	–	1.2 ± 0.5	92.9
Cc1nc2scc(C)n2c1C(O)c1ccc(F)cc1 (stereo not drawn) [Ex. 12, 3,6-dimethyl-5-{hydroxy-(4-fluorophenyl)}-methylimidazo[2,1-b]-thiazole]	–	–	–	–	–	–	–	–	–	–	–	–	–	–	–	–	–	–	6.3 ± 1.3	62.7
